Test results as given in PubChem BioAssay (NCI).
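Tested at 5 concentrations; 48 h exposure; 96-well plates; endpoints linearly interpolated, else capped at highest concentration. The concentration for full growth arrest is given as TGI.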

Legend:
Assay in all cases: NCI anticancer screen, dose series, 48 h
[1] = tested on: COLO 205 colon
[2] = tested on: A498 renal
[3] = tested on: KM12 colon
[4] = tested on: SK-OV-3 ovarian
[5] = tested on: NCI-H460 lung
[6] = tested on: CCRF-CEM leukemia
[7] = tested on: MDA-N
[8] = tested on: RPMI-8226 leukemia
[9] = tested on: UO-31 renal
[10] = tested on: EKVX NSCLC
[11] = tested on: M14 melanoma
[12] = tested on: HCT-15 colon
[13] = tested on: SF-295 CNS
[14] = tested on: MCF7 breast
[15] = tested on: HT29 colon
[16] = tested on: MDA-MB-435
[17] = tested on: T-47D breast
[18] = tested on: LOX IMVI melanoma

CC(=O)NC1=CC(=O)C=C(Cl)C1=O
TGI [1]: > 100 µM | TGI [2]: > 100 µM | TGI [3]: > 100 µM | TGI [4]: > 100 µM | TGI [5]: > 100 µM | TGI [6]: 57.8 µM | TGI [7]: 31 µM | TGI [8]: 52.1 µM | TGI [9]: > 100 µM | TGI [10]: > 100 µM | TGI [11]: > 100 µM | TGI [12]: > 100 µM | TGI [13]: > 100 µM | TGI [14]: 82.4 µM | TGI [15]: > 100 µM | TGI [16]: 32.2 µM | TGI [17]: > 100 µM

O=C1Cc2c([nH]c3cc(Br)ccc23)-c2ccccc2N1
TGI [18]: 37 µM | TGI [1]: 93.8 µM | TGI [2]: 49 µM | TGI [3]: > 100 µM | TGI [4]: 58.8 µM | TGI [5]: 48.5 µM | TGI [6]: 20.2 µM | TGI [7]: > 100 µM | TGI [9]: 38.1 µM | TGI [11]: 37.5 µM | TGI [12]: 25.2 µM | TGI [13]: 61.3 µM | TGI [14]: > 100 µM | TGI [15]: 37.2 µM | TGI [16]: > 100 µM | TGI [17]: 84.1 µM

CC1(C)O[C@@H](CP(c2ccc3ccccc3c2)c2ccc3ccccc3c2)[C@H](CP(c2ccc3ccccc3c2)c2ccc3ccccc3c2)O1
TGI [18]: > 100 µM | TGI [1]: > 100 µM | TGI [3]: > 100 µM | TGI [4]: > 100 µM | TGI [5]: > 100 µM | TGI [6]: > 100 µM | TGI [7]: > 100 µM | TGI [9]: > 100 µM | TGI [10]: > 100 µM | TGI [11]: > 100 µM | TGI [12]: > 100 µM | TGI [13]: > 100 µM | TGI [14]: > 100 µM | TGI [15]: > 100 µM | TGI [16]: > 100 µM | TGI [17]: > 100 µM

O=c1c2cc([N+](=O)[O-])cnc2sn1-c1ccc(Br)cc1
TGI [18]: 52.5 µM | TGI [1]: > 100 µM | TGI [3]: > 100 µM | TGI [4]: 99 µM | TGI [5]: > 100 µM | TGI [6]: 66.6 µM | TGI [7]: > 100 µM | TGI [8]: > 100 µM | TGI [9]: > 100 µM | TGI [10]: > 100 µM | TGI [11]: > 100 µM | TGI [12]: > 100 µM | TGI [13]: 47.1 µM | TGI [14]: > 100 µM | TGI [15]: 79.2 µM | TGI [16]: > 100 µM | TGI [17]: 48.1 µM

COc1cccc(-c2cc(=O)c3cc(N4CCCC4)ccc3[nH]2)c1
TGI [18]: 0.00131 µM | TGI [1]: < 0.001 µM | TGI [3]: 0.0111 µM | TGI [5]: 1.42 µM | TGI [6]: > 10 µM | TGI [7]: < 0.001 µM | TGI [8]: 2.44 µM | TGI [9]: > 10 µM | TGI [10]: > 10 µM | TGI [11]: > 10 µM | TGI [12]: 0.00647 µM | TGI [13]: < 0.001 µM | TGI [14]: > 4.67 µM | TGI [16]: < 0.001 µM | TGI [17]: > 10 µM

Nc1ccc2c(c1)S(=O)(=O)c1cc(N)ccc1-2
TGI [18]: > 100 µM | TGI [1]: > 100 µM | TGI [2]: > 100 µM | TGI [3]: > 100 µM | TGI [4]: > 100 µM | TGI [5]: > 100 µM | TGI [7]: > 100 µM | TGI [9]: > 100 µM | TGI [10]: > 100 µM | TGI [11]: > 100 µM | TGI [12]: > 100 µM | TGI [13]: > 100 µM | TGI [14]: > 100 µM | TGI [15]: > 100 µM | TGI [16]: > 100 µM | TGI [17]: > 100 µM

Cc1cn(C2CC(O)C(Cn3nncc3Cn3ccc(=O)[nH]c3=O)O2)c(=O)[nH]c1=O (stereo not drawn)
TGI [18]: > 100 µM | TGI [1]: > 100 µM | TGI [2]: > 100 µM | TGI [3]: > 100 µM | TGI [4]: > 100 µM | TGI [6]: > 100 µM | TGI [7]: > 100 µM | TGI [8]: > 100 µM | TGI [9]: > 100 µM | TGI [10]: > 100 µM | TGI [11]: > 100 µM | TGI [12]: > 100 µM | TGI [13]: > 100 µM | TGI [14]: > 100 µM | TGI [15]: > 100 µM | TGI [16]: > 100 µM | TGI [17]: > 100 µM

O=C(NC(Cc1ccccc1)P(=O)(O)c1ccccc1)OCc1ccccc1 (stereo not drawn)
TGI [18]: > 100 µM | TGI [1]: > 100 µM | TGI [3]: > 100 µM | TGI [4]: > 100 µM | TGI [5]: > 100 µM | TGI [6]: > 100 µM | TGI [7]: > 100 µM | TGI [8]: > 100 µM | TGI [9]: > 100 µM | TGI [10]: > 100 µM | TGI [11]: > 100 µM | TGI [12]: > 100 µM | TGI [13]: > 100 µM | TGI [14]: > 100 µM | TGI [15]: > 100 µM | TGI [16]: > 100 µM | TGI [17]: > 100 µM

C1COCCOP2(N3CC3)=NP(N3CC3)(=NP(N3CC3)(N3CC3)=N2)OCCOCCO1 (stereo not drawn)
TGI [18]: > 100 µM | TGI [1]: > 100 µM | TGI [2]: > 100 µM | TGI [3]: > 100 µM | TGI [4]: > 100 µM | TGI [6]: > 100 µM | TGI [7]: > 100 µM | TGI [8]: > 100 µM | TGI [9]: > 100 µM | TGI [10]: > 100 µM | TGI [11]: > 100 µM | TGI [12]: > 100 µM | TGI [13]: > 100 µM | TGI [14]: > 100 µM | TGI [15]: > 100 µM | TGI [16]: > 100 µM | TGI [17]: > 100 µM

Cc1ccc(S(=O)(=O)NC(=O)NCC(=O)O)cc1
TGI [18]: > 100 µM | TGI [1]: > 100 µM | TGI [3]: > 100 µM | TGI [4]: > 100 µM | TGI [5]: > 100 µM | TGI [6]: > 100 µM | TGI [7]: > 100 µM | TGI [8]: > 100 µM | TGI [9]: > 100 µM | TGI [11]: > 100 µM | TGI [12]: > 100 µM | TGI [13]: > 100 µM | TGI [14]: > 100 µM | TGI [15]: > 100 µM | TGI [17]: > 100 µM

CSc1nc(Cl)c2c(n1)Sc1nc3ccccc3n1N=C2
TGI [18]: 33.5 µM | TGI [1]: 57.5 µM | TGI [2]: > 100 µM | TGI [3]: > 100 µM | TGI [4]: > 100 µM | TGI [5]: > 100 µM | TGI [6]: 46.2 µM | TGI [7]: 59.9 µM | TGI [8]: 60 µM | TGI [9]: 35.9 µM | TGI [11]: 46.3 µM | TGI [12]: 36.7 µM | TGI [13]: > 100 µM | TGI [15]: 53.6 µM | TGI [16]: > 100 µM | TGI [17]: 57.2 µM

NC(=O)N=Nc1c2ccccc2n2[nH]ccc12
TGI [18]: > 100 µM | TGI [1]: > 100 µM | TGI [2]: > 100 µM | TGI [3]: > 100 µM | TGI [4]: > 100 µM | TGI [5]: > 100 µM | TGI [6]: > 100 µM | TGI [7]: > 100 µM | TGI [10]: > 100 µM | TGI [11]: > 100 µM | TGI [12]: > 100 µM | TGI [13]: > 100 µM | TGI [14]: 66.7 µM | TGI [15]: > 100 µM | TGI [16]: > 100 µM | TGI [17]: 92.9 µM

COc1cc(C2SC(N)=Nc3c2c(C)nn3C(=O)c2ccc(Cl)cc2)ccc1O (stereo not drawn)
TGI [18]: > 10 µM | TGI [1]: > 10 µM | TGI [3]: > 10 µM | TGI [4]: > 10 µM | TGI [5]: > 10 µM | TGI [6]: > 10 µM | TGI [7]: 0.406 µM | TGI [8]: > 10 µM | TGI [10]: > 10 µM | TGI [11]: > 10 µM | TGI [12]: > 10 µM | TGI [13]: > 10 µM | TGI [14]: > 10 µM | TGI [15]: > 10 µM | TGI [16]: > 10 µM | TGI [17]: > 10 µM

CCOC(=O)/C=C1\C[C@H](NC(=O)OCc2ccccc2)C(=O)N1CC(=O)OCC
TGI [1]: > 100 µM | TGI [2]: > 100 µM | TGI [3]: > 100 µM | TGI [4]: > 100 µM | TGI [5]: > 100 µM | TGI [6]: > 100 µM | TGI [7]: > 100 µM | TGI [8]: > 100 µM | TGI [9]: > 100 µM | TGI [10]: > 100 µM | TGI [11]: > 100 µM | TGI [12]: > 100 µM | TGI [13]: > 100 µM | TGI [14]: > 100 µM | TGI [15]: > 100 µM | TGI [16]: > 100 µM | TGI [17]: > 100 µM
